Laboratory results taken from patent publication US9522920B2, “Bromodomain inhibitors and uses thereof” (Constellation Pharmaceuticals, Inc., priority 2010, dated 2016).
Where two headings read alike, the source gives them in different places.

Legend:
[1] = molecular target: T1, BRD4(BD1) (Homo sapiens, UniProt O60885); assay: BRD4 AlphaLisa binding assay (Alphascreen)
T1 construct: His; made in house
Protocol: Specifically, in a 384 well ProxiPlate BRD4(BD1) (30 nM final) was combined with peptide (200 nM final) in 40 mM HEPES (pH 7.0), 40 mM NaCl, 1 mM DTT, 0.01% (w/v) BSA, and 0.008% (w/v) Brij-35 either in the presence of DMSO (final 1.2% DMSO) or compound dilution series in DMSO. After 20 minute incubation at room temperature Alpha streptavidin donor beads and AlphaLisa anti-Flag acceptor beads were added to a final concentration of 10 ug/mL each. After three hours equilibration plates were read on an Envision instrument and IC50s calculated using a four parameter non-linear curve fit.

[2] = test system: IL-6 secretion; assay: Cell-based IL-6 quantification assay (ELISA, Mesoscale) in LPS-stimulated THP-1 cells; details: read-out: IL6
Protocol: 100,000 THP-1 cells were seeded in RPMI1640-10% FBS in 96-well plates. LPS (E. Coli Invitrogen) in RPMI-10% FBS at a final concentration of 4 μg/mL was added to the wells and the cells are then incubated in the presence of various concentrations of compounds for 16 h. Plates are spun ([…], 5 min), an aliquot of 25 uL supernatant is transferred in to an ELISA plate (Mesoscale technology, MSD) and the detection of IL-6 is performed using manufacturer's instructions. The amount of cells in each well is assessed using CellTiter-Glo® (Promega). The ratio of ELISA value/CellTiter-Glo value is used to calculate the percent of inhibition of IL-6 secretion.

[3] = Table 14, BRD4 AlphaLisa Binding Assay, read-out: Alpha screen
[4] = Homo sapiens, THP-1, 16 h, Table 14, THP-1 cells, LPS, 16 h
[5] = Table 6, BRD4(BD1) 30 nM, H4-tetraacetyl peptide 200 nM, read-out: BRD4 Alphascreen IC50
[6] = Homo sapiens, THP-1, 16 h, Table 7, THP-1 cells, LPS 4 μg/mL, 16 h, normalised to CellTiter-Glo
[7] = Table 14, THP-1 cells, LPS, 16 h

IC50 [1, 5] [nM] | Compound | IC50 [2, 6] [nM] | other results
> 1000 | Cc1noc2c1-c1ccn(-c3ccccc3)c(=O)c1C(c1ccc(Cl)cc1)=NC2 [Compound 179, 6-(4-Chlorophenyl)-1-methyl-8-phenyl-4H-isoxazolo[5,4-c]pyrido[4,3-e]azepin-7(8H)-one] | > 1000 | 
> 1000 | Cc1noc2c1-c1cc[nH]c(=O)c1C(c1ccc(Cl)cc1)=NC2 [Compound 176, 6-(4-Chlorophenyl)-1-methyl-4H-isoxazolo[5,4-c]pyrido[4,3-e]azepin-7(8H)-one] | > 1000 | 
> 1000 | Cc1noc2c1-c1sc(C)c(C)c1C(Nc1ccc(Cl)cc1)=N[C@H]2CC(N)=O [Compound 185, 2-((6S)-4-((4-Chlorophenyl)amino)-2,3,9-trimethyl-6H-isoxazolo[5,4-c]thieno[2,3-e]azepin-6-yl)acetamide] | > 1000 | 
< 500 | CC(=O)NC[C@@H]1N=C(c2ccc(Cl)cc2)c2c(sc(C)c2C)-c2c(C)noc21 [Compound 182, N-(((6S)-4-(4-Chlorophenyl)-2,3,9-trimethyl-6H-isoxazolo[5,4-c]thieno[2,3-e]azepin-6-yl)methyl)acetamide] | 500 to 1000 | 
< 500 | COC(=O)NC[C@@H]1N=C(c2ccc(Cl)cc2)c2c(sc(C)c2C)-c2c(C)noc21 [Compound 183, Methyl (((6S)-4-(4-chlorophenyl)-2,3,9-trimethyl-6H-isoxazolo[5,4-c]thieno[2,3-e]azepin-6-yl)methyl)carbamate] | 500 to 1000 | 
> 1000 | Cc1onc2c1-c1ccccc1C(c1ccc(Cl)cc1)=NC2 [Compound 191, 6-(4-chlorophenyl)-1-methyl-4H-benzo[c]isoxazolo[4,3-e]azepine] |  | 
> 1000 | CCNC(=O)C[C@H]1N=C(c2ccc(Cl)cc2)c2ccccc2-c2c1noc2C [Compound 189, 2-((4R)-6-(4-chlorophenyl)-1-methyl-4H-benzo[c]isoxazolo[4,3-e]azepin-4-yl)-N-ethylacetamide] |  | 
> 1000 | Cc1noc2c1-c1ccn(C)c(=O)c1C(c1ccc(Cl)cc1)=NC2 [Compound 177, 6-(4-Chlorophenyl)-1,8-dimethyl-4H-isoxazolo[5,4-c]pyrido[4,3-e]azepin-7(8H)-one] | > 1000 | 

Continued, compound first:

Compound | IC50 [1, 5] [nM] | IC50 [2, 6] [nM] | other results
CC(=O)NC1N=C(c2ccc(C#N)cc2)c2ccccc2-c2c(C)noc21 (centres unmarked) [Compound 263, N-(6-(4-cyanophenyl)-1-methyl-4,1-benzo[c]isoxazolo[4,5-e]azepin-4-yl)acetamide] |  |  | IC50 [1, 3]: < 500 nM; IC50 [2, 4]: < 500 nM
Cc1noc2c1-c1ccnc(OC(C)C)c1C(c1ccc(Cl)cc1)=NC2 [Compound 171, 6-(4-Chlorophenyl)-7-isopropoxy-1-methyl-4H-isoxazolo[5,4-c]pyrido[4,3-e]azepine] | > 1000 |  | IC50 ([2]; Homo sapiens, THP-1, 16 h): > 1000 nM
Cc1onc2c1-c1ccccc1C(c1ccc(Cl)cc1)=NC2N (centres unmarked) [Compound 154, 6-(4-chlorophenyl)-1-methyl-4H-benzo[c]isoxazolo[4,3-e]azepin-4-amine] | > 1000 | > 1000 | 
CCNC(=O)NC1N=C(c2ccc(OC(F)(F)F)cc2)c2ccccc2-c2c(C)noc21 (centres unmarked) [compound 259] |  |  | IC50 [1, 3]: < 500 nM
CCOC(=O)C[C@@H]1N=C(c2ccc(Cl)cc2)c2ccccc2-c2c1noc2C [Compound 162, Ethyl 2-((4S)-6-(4-chlorophenyl)-1-methyl-4H-benzo[c]isoxazolo[4,3-e]azepin-4-yl)acetate] | < 500 | > 1000 | 
Cc1noc2c1-c1sc(C)c(C)c1C(Cc1ccccc1)=N[C@H]2CC(N)=O [Compound 127, 2-((6S)-4-benzyl-2,3,9-trimethyl-6H-isoxazolo[5,4-c]thieno[2,3-e]azepin-6-yl)acetamide] | > 1000 | > 1000 | 
COc1nccc2c1C(c1ccc(Cl)cc1)=NCc1onc(C)c1-2 [Compound 170, 6-(4-Chlorophenyl)-7-methoxy-1-methyl-4H-isoxazolo[5,4-c]pyrido[4,3-e]azepine] | < 500 | > 1000 | 
CNc1cc2c(cn1)-c1c(C)noc1CN=C2c1ccc(Cl)cc1 [Compound 258, 6-(4-Chlorophenyl)-N,1-dimethyl-4H-isoxazolo[5,4-c]pyrido[3,4-e]azepin-8-amine] |  |  | IC50 [1, 3]: < 500 nM
Cc1onc2c1-c1ccccc1C(c1ccc(Cl)cc1)=NC2O (centres unmarked) [Compound 153, 6-(4-chlorophenyl)-1-methyl-4H-benzo[c]isoxazolo[4,3-e]azepin-4-ol] | > 1000 | > 1000 | 
Cc1noc2c1-c1sc(C)c(C)c1C(c1ccccc1Cl)=NC2CC(N)=O (centres unmarked) [Compound 111] | < 500 | < 500 | 
Cc1noc2c1-c1sc(C)c(C)c1C(c1ccncc1)=NC2CC(N)=O (centres unmarked) [Compound 107] | < 500 | < 500 | 
Cc1noc2c1-c1sc(C)c(C)c1C(C1CCN(C)CC1)=N[C@H]2CC(N)=O [Compound 194] |  |  | IC50 [1, 3]: > 1000 nM; IC50 [2, 7]: > 1000 nM
Cc1noc2c1-c1sc(C)c(C)c1C(OC(C)C)=N[C@H]2CC(N)=O [Compound 193] |  |  | IC50 [1, 3]: 500 to 1000 nM; IC50 [2, 7]: > 1000 nM
Cc1noc2c1-c1sc(C)c(C)c1C(C(C)c1ccccc1)=N[C@H]2CC(N)=O (some centres unmarked) [Compound 195] |  |  | IC50 [1, 3]: > 1000 nM; IC50 [2, 7]: > 1000 nM
Cc1noc2c1-c1sc(C)c(C)c1C(N1CCN(C)CC1)=NC2CC(N)=O (centres unmarked) [Compound 121] | > 1000 | > 1000 | 
Cc1noc2c1-c1sc(C)c(C)c1C(c1cncnc1)=NC2CC(N)=O (centres unmarked) [Compound 105] | > 1000 | > 1000 | 
Cc1noc2c1-c1ccnc(F)c1C(c1ccc(Cl)cc1)=NC2 [Compound 169, 6-(4-Chlorophenyl)-7-fluoro-1-methyl-4H-isoxazolo[5,4-c]pyrido[4,3-e]azepine] | > 1000 | > 1000 | 

Compound | IC50 [1, 5] [nM] | IC50 [2, 6] [nM] | other results
Cc1noc2c1-c1sc(C)c(C)c1C(c1ccn(C)n1)=NC2CC(N)=O (centres unmarked) [Compound 101] | < 500 | 500 to 1000 | 
Cc1noc2c1-c1sc(C)c(C)c1C(c1ccnnc1)=NC2CC(N)=O (centres unmarked) [Compound 104] | 500 to 1000 | 500 to 1000 | 
Cc1noc2c1-c1sc(C)c(C)c1C(C1CC1)=NC2CC(N)=O (centres unmarked) [Compound 125] | > 1000 | > 1000 | 
Cc1cc(Cl)ccc1C1=NC(CC(N)=O)c2onc(C)c2-c2ccccc21 (centres unmarked) [Compound 151] | < 500 | < 500 | 
CCNC(=O)C[C@H]1N=C(c2ccc(Cl)cc2)c2c(sc(C)c2C)-c2c(C)noc21 [Compound 167, 2-((6R)-4-(4-chlorophenyl)-2,3,9-trimethyl-6H-isoxazolo[4,5-e]thieno[3,2-c]azepin-6-yl)-N-ethylacetamide] |  |  | IC50 ([1]; BRD4 Alphascreen IC50, Table 6, BRD4(BD1) 30 nM, H4-tetraacetyl peptide 200 nM): > 1000 nM
CCNC(=O)NC1N=C(c2ccc(F)cc2)c2ccccc2-c2c(C)noc21 (centres unmarked) [compound 260] |  |  | IC50 [1, 3]: < 500 nM
Cc1noc2c1-c1sc(C)c(C)c1C(c1ccn(C)c(=O)c1)=NC2CC(N)=O (centres unmarked) [Compound 119] | < 500 | 500 to 1000 | 
Cc1noc2c1-c1c[nH]c(=O)cc1C(c1ccc(Cl)cc1)=NC2 [Compound 266, 6-(4-Chlorophenyl)-1-methyl-4H-isoxazolo[5,4-c]pyrido[3,4-e]azepin-8(9H)-one] |  |  | IC50 [1, 3]: < 500 nM; IC50 [2, 4]: < 500 nM
Cc1noc2c1-c1sc(C)c(C)c1C(N1CCCN(C)CC1)=NC2CC(N)=O (centres unmarked) [Compound 123] | > 1000 | > 1000 | 
Cc1noc2c1-c1ccccc1C(c1ccc(C#N)cc1)=NC2NC(=O)C(C)C (centres unmarked) [compound 264] |  |  | IC50 [1, 3]: > 1000 nM; IC50 [2, 7]: > 1000 nM
Cc1noc2c1-c1sc(C)c(C)c1C(c1cccc(C(N)=O)c1)=NC2CC(N)=O (centres unmarked) [Compound 117] | < 500 | < 500 | 
Cc1noc2c1-c1sc(C)c(C)c1C(c1cc[nH]n1)=NC2CC(N)=O (centres unmarked) [Compound 100] | < 500 | 500 to 1000 | 
Cc1noc2c1-c1cn(C)nc1C(c1ccc(Cl)cc1)=NC2 [Compound 265, 6-(4-chlorophenyl)-1,8-dimethyl-4,8-dihydroisoxazolo[5,4-c]pyrazolo[4,3-e]azepine] |  |  | IC50 [2, 4]: > 1000 nM
Cc1onc2c1-c1ccccc1C(c1ccc(Cl)cc1)=NC2C (centres unmarked) [Compound 156, 6-(4-chlorophenyl)-1,4-dimethyl-4H-benzo[c]isoxazolo[4,3-e]azepine] | < 500 | > 1000 | 
Cc1noc2c1-c1sc(C)c(C)c1C(C1CCOCC1)=N[C@H]2CC(N)=O [Compound 168, 2-((6S)-2,3,9-trimethyl-4-(tetrahydro-2H-pyran-4-yl)-6H-isoxazolo[5,4-c]thieno[2,3-e]azepin-6-yl)acetamide] | > 1000 | > 1000 | 
Cc1noc2c1-c1sc(C)c(C)c1C(c1cccnc1)=NC2CC(N)=O (centres unmarked) [Compound 106] | < 500 | < 500 | 
Cc1noc2c1-c1sc(C)c(C)c1C(N1CCOCC1)=NC2CC(N)=O (centres unmarked) [Compound 122] | > 1000 | > 1000 | 
